Results reported in patent US8076485B2, “Methylphenidate derivatives and uses of them” (priority 2005, dated 2011).

How the values were obtained:
NFκB = test: Activated NFκB in VEGF-treated HUVECs (TransAM assay); assay type: cell-based, human; conditions: Cpd II at 15 μg/ml and 5 μg/ml
Description: Passage 5 HUVECs, human source lot number 8750, were grown to confluence in 25 cm^2 flasks in EGM-2 medium. The following additives were added to the flasks (total volume of 5 ml/flask) in EGM-2 medium containing 2% FCS, GA1000 (gentamycin), heparin and ascorbic acid (all from Cambrex): 1 μg/ml of the compound of formula II (Cpd II); 5 μg/ml Cpd II; 15 μg/ml of Cpd II; 15 μg/ml methylphenidate (MP); or 10 μM LY 294002. The flasks were incubated overnight at 37° C., 5% CO2. After this incubation, VEGF was added to give a final concentration 10 ng/ml, and the flasks were incubated for an additional 30 minutes.
Then, the amount of NFκB was determined using a TransAM™ NFκB p65/NFκB p50 Transcription Factor Assay Kit and a Nuclear Extract Kit from Active Motif North America, Carlsbad, Calif., according to the manufacturer's instructions. Briefly, a nuclear extract of the cells was prepared using the Nuclear Extract Kit. Then, the nuclear extract was added to the wells of the 96-well plate of the TransAM™ kit. […] Then, an antibody directed against the NFκB p65 or p50 subunit was added, and the NFκB complex bound to the oligonucleotide was detected. A secondary antibody conjugated to horseradish peroxidase (HRP) was next added to provide a colorimetric readout that was quantified by spectrophotometry (measurement at 450 nm).

[1] = system: CD3/CD28 stimulated TRiPS cells; test: Custom AntibodyArray of cell extracts of CD3/CD28 stimulated TRiPS cells; assay type: cell-based, human; conditions: 15 μg/ml, 30 minutes; antibody array, phospho-specific detection
Description: Day 18 TRiPS cells, 1×10^6, were incubated for 30 minutes at 37° C., either with nothing added (“Nil”), with 1 μl CD3/CD28 Dynabeads (Dynal, Oslo, Norway) (“CD3/CD28 beads”) per 100,000 cells, or with CD3/CD28 beads and 15 μg/ml of the compound of formula II (Cpd II). After the incubation, the cells were lysed in Cell-Lytic Mammalian Cell Extraction Reagent (Sigma). After centrifugation to pellet cellular debris, the supernatants (cell extracts) were obtained.
The cell extracts (supernatants) were then analyzed using a Custom AntibodyArray™ manufactured by Hypromatrix Inc., Worcester, Mass., following the manufacturer's instructions. The Custom AntibodyArray™ is a nylon membrane blotted with antibodies to the proteins listed below. Briefly, the cell extracts were incubated with duplicate Custom AntibodyArray™, s for 2 hours at room temperature with slow shaking, followed by three washes with Tris buffer (150 mM NaCl, 25 mM Tris, 0.05% Tween-20, pH 7.5). HRP-labeled antibodies specific for phosphorylated-tyrosine, phosphorylated-serine and phosphorylated-threonine in Tris buffer were added, and the arrays incubated for 2 hours. After three more washes with Tris buffer, a peroxidase-reactive luminescent substrate was added. The arrays were visualized by exposure to X-ray film. Densitometry of the X-ray films was measured by scanning and computer analysis.

[2] = system: Jurkat T-lymphocyte leukemia cell line; test: Jurkat cell viability (ETH-D1 / calcein AM); assay type: cell-based; conditions: Jurkat cells, 72 hours, control 20.85% ± 1.42%
Description: The Jurkat T-lymphocyte leukemia cell line was obtained from American Type Culture Collection (ATCC), Rockville, Md. (catalog no. TIB-152). Jurkat cells, at 1×10^5 cells/ml, were cultured at 37° C. and 5% CO2 in IMDM medium (ATCC) with 10% FCS for 72 hours with 7.5 μg/ml or 15 μg/ml of the compound of formula II (Cpd II). Following the incubation, the cells were washed with Hepes buffered saline, split into three equal volumes, and then incubated with 5 μM ethidium bromide dimer-1 (ETH-D1) (obtained from Molecular Probes) and 5 μM calcein AM solution (obtained from Promega) for one hour at 37° C. and 5% CO2 in 96-well culture plates to assay for cell viability. The fluorescence in each well was measured using a plate reader at excitation/emission 485/530 nm and 530/645 nm. Relative percentage of dead to live cells was calculated by dividing ETH-D1 fluorescence by calcein AM fluorescence.

IL-8 [3] = test: IL-8 release by TNFα-stimulated HUVECs (ELISA); assay type: cell-based, human; conditions: for IL-8 release stimulated by TNFα: HUVECs, 10 ng/ml TNFα, Cpd II 1-30 μg/ml, MP 15 μg/ml, Dex 10 μM, LY 294002 10 μM
Description: Passage 4 HUVECs, human source lot number 8710 (obtained from ATCC), were put into the wells of a 24-well tissue culture plate at 5,000 cells/well in EGM-2 medium and cultured for 72 hours at 37° C. and 5% CO2. […] After incubation for 1 hour at 37° C. and 5% CO2, TNFα (Pierce) was added to give a final concentration of 10 ng/ml, and the cells were incubated for an additional 18 hours at 37° C. and 5% CO2. After this incubation, the supernatants were collected, and the amount of IL-8 in the supernatants determined by ELISA as described in Example 4.

IL-8 [4] = test: IL-8 production by CD3/CD28-activated TRiPS cell line (ELISA); assay type: cell-based, human; conditions: 15 μg/ml; CD3/CD28 Dynabeads, 24 hours
IL-8 [5] = test: IL-8 release from LPS-stimulated THP-1 monocytes (ELISA); assay type: cell-based; conditions: THP-1, LPS 200 ng/ml; Cpd II 15 μg/ml, Dex 10 μM
Description: THP-1 is a monocyte cell line obtained from American Type Culture Collection (ATCC) (catalog no. TIB-202). […] After 1 hour, lipopolysaccharide (LPS) (obtained from Sigma) was added to the cultures to give a final concentration of 200 ng/ml, and the cells were then incubated for an additional 4 hours or for an additional 24 hours. After the incubation, the cells were centrifuged, and the supernatants were collected. The concentrations of IL-8 and TNFα in the supernatants were determined by ELISA.
The concentrations of IL-8 in the supernatants were determined by ELISA performed as described in Example 4.

[6] = Homo sapiens, HUVEC, 18 h, read-out: % inhibition (IL-8)

Question: What does the source list for COC(=O)C(c1ccc(-c2ccccc2)cc1)C1CCCCN1 (stereo not drawn) [Cpd II]?
Answer: amount of activated NFκB (NFκB): reduced the amount of activated NFκB back to basal levels; Effect of Cpd II on the protein in CD3/CD28 stimulated TRiPS cells: 14-3-3 [1]: Slightly decreased the level; Effect of Cpd II on the protein in CD3/CD28 stimulated TRiPS cells: IL-2 [1]: Decreased level back to basal levels (Nil control); Effect of Cpd II on the protein in CD3/CD28 stimulated TRiPS cells: IL-4 [1]: Decreased level back to basal levels (Nil control); Effect of Cpd II on the protein in CD3/CD28 stimulated TRiPS cells: IL-7y [1]: Decreased level back to basal levels (Nil control); Effect of Cpd II on the protein in CD3/CD28 stimulated TRiPS cells: IkB-r [1]: Decreased level back to basal levels (Nil control); Effect of Cpd II on the protein in CD3/CD28 stimulated TRiPS cells: IkB-α [1]: Slightly decreased the level; Effect of Cpd II on the protein in CD3/CD28 stimulated TRiPS cells: IkB-β [1]: Decreased level back to basal levels (Nil control); Effect of Cpd II on the protein in CD3/CD28 stimulated TRiPS cells: IkB-ε [1]: Slightly decreased the level; Effect of Cpd II on the protein in CD3/CD28 stimulated TRiPS cells: JAK2 [1]: Activated; Effect of Cpd II on the protein in CD3/CD28 stimulated TRiPS cells: JNK1 [1]: Decreased level back to basal levels (Nil control); Effect of Cpd II on the protein in CD3/CD28 stimulated TRiPS cells: JNK2 [1]: Decreased level back to basal levels (Nil control); Effect of Cpd II on the protein in CD3/CD28 stimulated TRiPS cells: JNK3 [1]: Decreased level back to basal levels (Nil control); Effect of Cpd II on the protein in CD3/CD28 stimulated TRiPS cells: MEK1 [1]: Decreased level to below basal levels (Nil control); Effect of Cpd II on the protein in CD3/CD28 stimulated TRiPS cells: MEKK1 [1]: Decreased level back to basal levels (Nil control); Effect of Cpd II on the protein in CD3/CD28 stimulated TRiPS cells: PI3kinaseP85 [1]: Activated; Effect of Cpd II on the protein in CD3/CD28 stimulated TRiPS cells: RAP1 [1]: Activated; Effect of Cpd II on the protein in CD3/CD28 stimulated TRiPS cells: RAP2 [1]: Activated; Effect of Cpd II on the protein in CD3/CD28 stimulated TRiPS cells: STAT4 [1]: Activated; Effect of Cpd II on the protein in CD3/CD28 stimulated TRiPS cells: STAT5b [1]: Activated; Effect of Cpd II on the protein in CD3/CD28 stimulated TRiPS cells: STAT6 [1]: Slightly decreased the level; Relative Percentage Dead/Live ([2]; 7.5 μg/ml): 16.74% ± 2.15%; Relative Percentage Dead/Live ([2]; 15 μg/ml): 40.79% ± 1.81%; IL-8 release stimulated by TNFα (IL-8 [3]): decreased IL-8 release stimulated by TNFα in a dose-dependent manner; inhibition at 1 µg/mL (IL-8 [3]; [6]): -51.1%; inhibition at 5 µg/mL (IL-8 [3]; [6]): 3.08%; inhibition at 10 µg/mL (IL-8 [3]; [6]): 38.2%; inhibition at 15 µg/mL (IL-8 [3]; [6]): 41.7%; inhibition at 30 µg/mL (IL-8 [3]; [6]): 86.9%; IL-8 production by the TRiPS cell line (IL-8 [4]): no effect; release of IL-8 from the LPS-stimulated monocytes (IL-8 [5]): significantly inhibited the release of IL-8

Question: COC(=O)C(c1ccccc1)C1CCCCN1 (stereo not drawn) [methylphenidate] was tested. Which “IL-8 release stimulated by TNFα” value (IL-8 [3]) did it give?
Answer: slightly decreased IL-8 release

Question: And the inhibition at 15 µg/mL (IL-8 [3]; [6])?
Answer: 15.2%
